In test [1] the test system is TNFα. Nature of the test: Cot Monocyte TNFα Cell Based Assay. As to conditions: LPS-stimulated cryopreserved human monocytes, TNFα by TR-FRET. The protocol: Example 23: Cot Monocyte TNFα Cell Based Assay
Cryopreserved human monocytes (Stem Cell Technologies) were thawed, diluted in RPMI with Glutamax (10 mM HEPES, 1× Pen-Strep, 55 μM β-mercaptoethanol, 1 mM Sodium pyruvate) media containing 10% FBS to 0.125×10^6 cells/ml and recovered at 37° C. for 2 hours. The cell suspension was then plated at a density of 5,000 cells/well onto black 384 well Greiner clear bottom plates. Plates were pre-spotted with test compounds and serially diluted in DMSO where 200 nL/well were delivered using the Echo 550 acoustic liquid dispenser (Labcyte®) for a final DMSO concentration of 0.5%. Plated cells were treated with compound for 1 hour at 37° C. Cells were then stimulated with 50 μg/ml of LPS (Sigma) excluding outside columns of plate used for unstimulated cell control wells. Cells were incubated for an additional 4 hours at 37° C. Cells were then spun out of the media and 5 μl of sample were taken and analyzed for total TNFα content using the TR-FRET Human TNFα detection system (CisBio). This system utilizes two labeled antibodies (cryptate and XL665) that bind to two different epitopes of the TNFα molecule and produce FRET signal proportional to the concentration of TNFα in the sample. Detection antibodies are mixed 50:50 and 5 μL were dispensed into each well. Plates were covered with clear seals and incubated at room temp overnight. The following morning plates were read using an Envision 2103 Multilabeled reader (PerkinElmer) with excitation/emission/FRET emission at 340 nm/615 nm/665 nm, respectively. Fluorescence intensities at 615 nm and 665 nm emission wavelengths were expressed as a ratio (665 nm/615 nm). Percent of control was calculated as follows: % Control=100×(RatioSample−Ratio0% stimulation)/(Ratio100% Stimulation−Ratio0% Stimulation) where unstimulated cells (0% stimulation) were the negative control and stimulated cells (100% stimulation) were used as the positive control.
(In TR-FRET formats the signal depends on donor and acceptor labels being close together.)

Test [2] concerns the target Human Cot (Homo sapiens (Human), UniProt P41279). As to the kind of experiment: High Throughput Cot Biochemical Assay (KinEASE TR-FRET). As to conditions: recombinant human Cot catalytic domain, 400 μM ATP. The protocol:
Example 24: High Throughput Cot Biochemical Assay
Human Cot enzyme activity was measured using KinEASE (Cisbio), a time-resolved fluorescence resonance energy transfer (TR-FRET) immunoassay. In this assay, Cot-catalyzes the phosporylation of a XL665-labeled peptide substrate. Europium conjugated […] specific antibody binds the resulting phosphorylated peptide. Formation of phosphorylated peptide is quantified by TR-FRET with Europium as the donor and XL665 the acceptor in a 2-step endpoint assay. Purified recombinant human Cot catalytic domain (30-397 amino acids) was purchased from Carna Biosciences. In brief, test compounds serially diluted in DMSO were delivered into Proxy white, low volume, 384 well plates using the Echo 550 acoustic liquid dispenser (Labcyte®). Cot enzyme and substrates were dispensed into assay plates using a Multi-Flo (Bio-Tek Instruments). The standard 5 μL reaction mixture contained 400 μM ATP, 1 μM STK3 peptide, 5 nM of Cot in reaction buffer (10 mM MOPS, pH 7.0, 0.02% NaN3, 0.5 mg/mL BSA, 10 mM MgOAc, 1 mM DTT, 0.025% NP-40, 1.5% glycerol) and 0.1% DMSO. After 2.5 hrs of incubation at room temperature, 5 μL of Stop and Detect Solution (1:200 Europium Cryptate labeled anti-phosphorylated peptide antibody solution and 125 nM strepavidin-XL665 Tracer in a 50 mM Hepes pH 7.0 detection buffer containing sufficient EDTA) was added. The plate was then further incubated for 120 minutes at room temperature and read using an Envision 2103 Multilabeled reader (PerkinElmer) with excitation/emission/FRET emission at 340 nm/615 nm/665 nm, respectively. Fluorescence intensities at 615 nm and 665 nm emission wavelengths were expressed as a ratio (665 nm/615 nm).

Human Cot, sequence (P41279 30-397): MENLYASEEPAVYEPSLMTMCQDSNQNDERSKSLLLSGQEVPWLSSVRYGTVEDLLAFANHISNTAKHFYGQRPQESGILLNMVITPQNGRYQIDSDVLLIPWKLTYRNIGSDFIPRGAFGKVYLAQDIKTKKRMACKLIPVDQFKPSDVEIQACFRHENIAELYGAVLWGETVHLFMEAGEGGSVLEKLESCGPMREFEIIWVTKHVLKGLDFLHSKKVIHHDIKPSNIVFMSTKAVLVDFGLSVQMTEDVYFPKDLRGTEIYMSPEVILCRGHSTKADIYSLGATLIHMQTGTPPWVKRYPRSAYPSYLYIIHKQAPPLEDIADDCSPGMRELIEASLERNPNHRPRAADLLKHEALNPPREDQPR

For orientation: EC50 means the concentration at which the effect is half-maximal. The term IC50 denotes the point on the concentration scale where inhibition reaches its midpoint. In test [1], `Cn1ccc2c([C@H](Nc3cc(C#N)c4ncnc(NCC(C)(C)C)c4c3)c3cn(C4(C(F)F)CC4)nn3)cccc2c1=O` [I-24, (S)-6-(((1-(1-(difluoromethyl)cyclopropyl)-1H-1,2,3-triazol-4-yl)(2-methyl-1-oxo-1,2-dihydroisoquinolin-5-yl)methyl)amino)-4-(neopentylamino) quinazoline-8-carbonitrile] displayed an EC50 of 11.3 nM. In addition, the IC50 in test [2] amounted to 1.2 nM.
For the compound `[2H][C@](Nc1ccc2ncnc(Nc3cnc(F)c(F)c3)c2c1)(c1ccc(F)cc1)c1cn(C2CC2)nn1` [II-11, (S)-N^6-((1-cyclopropyl-1H-1,2,3-triazol-4-yl)(4-fluorophenyl)methyl-d)-N^4-(5,6-difluoropyridin-3-yl)quinazoline-4,6-diamine], in test [1], the EC50 was 645 nM. In addition, in test [2], the IC50 was 74 nM.
On the same counts, the results for `[2H][C@](Nc1cc(C#N)c2ncnc(NCC(C)(C)C)c2c1)(c1ccc(F)cc1)c1cn(C2CC2)nn1` [I-14, (S)-6-(((1-cyclopropyl-1H-1,2,3-triazol-4-yl)(4-fluorophenyl)methyl-d)amino)-4-(neopentylamino) quinazoline-8-carbonitrile] are 42 nM and 2.1 nM.
The like results for `[2H][C@@](Nc1cc(Cl)c2ncnc(NCC(C)(C)C)c2c1)(c1cn(C2CC2)nn1)c1ccccc1Cl` [I-9, (S)-8-chloro-N6-((2-chlorophenyl)(1-cyclopropyl-1H-1,2,3-triazol-4-yl)methyl-d)-N4-neopentylquinazoline-4,6-diamine] were, in that order, 86 nM and 4.8 nM.
Take `CC(C)(C)CNc1ncnc2c(C#N)cc(N[C@H](c3cn(C4(C(F)(F)F)CC4)nn3)c3cccc4ncsc34)cc12` [I-17, (S)-6-((benzo[d]thiazol-7-yl(1-(1-(trifluoromethyl)cyclopropyl)-1H-1,2,3-triazol-4-yl)methyl)amino)-4-(neopentylamino) quinazoline-8-carbonitrile]: a half-maximal response in test [1] (EC50) required 59 nM. In test [2], the IC50 turned out to be 3.3 nM.
The like results for `[2H][C@](Nc1ccc2ncnc(NCC3(C)CCOCC3)c2c1)(c1ccc(F)cc1)c1cn(C2CC2)nn1` [I-3, (S)-N^6-((1-cyclopropyl-1H-1,2,3-triazol-4-yl)(4-fluorophenyl)methyl-d)-N^4-((4-methyltetrahydro-2H-pyran-4-yl)methyl)quinazoline-4,6-diamine] were, in that order, 296 nM and 11 nM.
Regarding `CCN1CCC(n2cc(C(Nc3cc(Cl)c4ncnc(Nc5ccc(F)c(Cl)c5)c4c3)c3ccccc3)nn2)CC1` (stereo not drawn) [II-3, 8-chloro-N^4-(3-chloro-4-fluorophenyl)-N^6-((1-(1-ethylpiperidin-4-yl)-1H-1,2,3-triazol-4-yl)(phenyl)methyl) quinazoline-4,6-diamine], the IC50 in test [2] is 19 nM.
On the same count and under the same terms, with `Fc1ccc(Nc2ncnc3c(Cl)cc(NC(c4ccccc4)c4cn(C5CCNCC5)nn4)cc23)cc1Cl` (stereo not drawn) [II-2, 8-chloro-N^4-(3-chloro-4-fluorophenyl)-N^6-(phenyl(1-(piperidin-4-yl)-1H-1,2,3-triazol-4-yl)methyl) quinazoline-4,6-diamine] the figure was 28 nM.
`[2H][C@](Nc1ccc2ncnc(NCC(C)(C)C)c2c1)(c1ccc(F)cc1)c1cn(C2CC2)nn1` [I-1, (S)-N^6-((1-cyclopropyl-1H-1,2,3-triazol-4-yl)(4-fluorophenyl)methyl-d)-N^4-neopentylquinazoline-4,6-diamine] gave an EC50 in test [1] of 101 nM. Also, the IC50 in test [2] was 5 nM.
The like results for `Cn1ccc2c([C@H](Nc3cc(Cl)c4ncnc(NCC(C)(C)C)c4c3)c3cn(C45CC(C4)C5)nn3)cccc2c1=O` [I-27, (S)-5-((1-(bicyclo[1.1.1]pentan-1-yl)-1H-1,2,3-triazol-4-yl)((8-chloro-4-(neopentylamino)quinazolin-6-yl)amino)methyl)-2-methylisoquinolin-1(2H)-one] were, in that order, 12.1 nM and 1.7 nM.
For the compound `CC(C)(C)CNc1ncnc2ccc(N[C@@H](c3ccc(F)cc3)c3cn(C4CC4)nn3)cc12` [I-2, (S)-N^6-((1-cyclopropyl-1H-1,2,3-triazol-4-yl)(4-fluorophenyl)methyl)-N^4-neopentylquinazoline-4,6-diamine], in test [1], the EC50 turned out to be 85 nM. Further, the IC50 in test [2] came to 7.7 nM.
As to `CC(C)(C)CNc1ncnc2c(Br)cc(N[C@H](c3cn(C4(C(F)(F)F)CC4)nn3)c3cccc4ncsc34)cc12` [I-18, (S)-N^6-(benzo[d]thiazol-7-yl(1-(1-(trifluoromethyl)cyclopropyl)-1H-1,2,3-triazol-4-yl)methyl)-8-bromo-N^4-neopentylquinazoline-4,6-diamine], the EC50 in test [1] is 195 nM. For the same compound, the IC50 in test [2] was found to be 8 nM.
`Fc1ccc(Nc2ncnc3ccc(N[C@@H](c4ccc(Cl)cc4)c4cn(C5CCNCC5)nn4)cc23)cc1Cl` [II-6, (S)-N^4-(3-chloro-4-fluorophenyl)-N^6-((4-chlorophenyl)(1-(piperidin-4-yl)-1H-1,2,3-triazol-4-yl)methyl) quinazoline-4,6-diamine]: the IC50 in test [2] was found to be 49 nM.
With `[2H][C@](Nc1cc(Cl)c2ncnc(N[C@H](CCC#N)c3ccccc3)c2c1)(c1ccc(F)cc1)c1cn(C2CC2)nn1` [I-11, (R)-4-((8-chloro-6-(((S)-(1-cyclopropyl-1H-1,2,3-triazol-4-yl)(4-fluorophenyl)methyl-d)amino)quinazolin-4-yl)amino)-4-phenylbutanenitrile], the EC50 in test [1] is 671 nM. For the same compound, the IC50 in test [2] stood at 46 nM.
On the same counts, the results for `Cc1nc(F)ccc1[C@H](Nc1cc(Cl)c2ncnc(NCC(C)(C)C)c2c1)c1cn(C2(C(F)F)CC2)nn1` [I-21, (S)-8-chloro-N^6-((1-(1-(difluoromethyl)cyclopropyl)-1H-1,2,3-triazol-4-yl)(6-fluoro-2-melhylpyridin-3-yl)methyl)-N^4-neopentylquinazoline-4,6-diamine] are 28 nM and 1.9 nM.
On the same counts, the results for `[2H][C@@](Nc1cc(C#N)c2ncnc(NCC(C)(C)C)c2c1)(c1cn(C2CC2)nn1)c1ccccc1Cl` [I-19, (S)-6-(((2-chlorophenyl)(1-cyclopropyl-1H-1,2,3-triazol-4-yl)methyl-d)amino)-4-(neopentylamino) quinazoline-8-carbonitrile] are 20 nM and 2.4 nM.
As to `Cc1c(C#N)cccc1[C@H](Nc1cc(Cl)c2ncnc(NCC(C)(C)C)c2c1)c1cn(C2(C(F)F)CC2)nn1` [I-23, (S)-3-(((8-chloro-4-(neopentylamino)quinazolin-6-yl)amino)(1-(1-(difluoromethyl)cyclopropyl)-1H-1,2,3-triazol-4-yl)methyl)-2-methylbenzonitrile], the IC50 in test [2] was 1.6 nM.
On to `Fc1ccc(Nc2ncnc3ccc(N[C@@H](c4ccc(Cl)cc4)c4cn(C5COC5)nn4)cc23)cc1Cl` [II-7, (S)-N^4-(3-chloro-4-fluorophenyl)-N^6-((4-chlorophenyl)(1-(oxetan-3-yl)-1H-1,2,3-triazol-4-yl)methyl) quinazoline-4,6-diamine], for which the IC50 in test [2] amounted to 284 nM.
Still for that read-out and setting: the value for `O=C(OCc1ccccc1)N1CCC(n2cc(C(Nc3cc(Cl)c4ncnc(Nc5ccc(F)c(Cl)c5)c4c3)c3ccccc3)nn2)CC1` (stereo not drawn) [II-1, benzyl 4-(4-(((8-chloro-4-((3-chloro-4-fluorophenyl)amino)quinazolin-6-yl)amino)(phenyl)methyl)-1H-1,2,3-triazol-1-yl)piperidine-1-carboxylate] was 8480 nM; that for `CC(C)(C)N1CCC(n2cc([C@@H](Nc3ccc4ncnc(Nc5ccc(F)c(Cl)c5)c4c3)c3ccc(Cl)cc3)nn2)CC1` [II-5, (S)-N^6-((1-(1-(tert-butyl)piperidin-4-yl)-1H-1,2,3-triazol-4-yl)(4-chlorophenyl)methyl)-N^4-(3-chloro-4-fluorophenyl) quinazoline-4,6-diamine] was 72 nM.

(Values after patent US10059695B2, “Cot modulators and methods of use thereof” (Gilead Sciences, Inc., priority 2016, dated 2018).)
